Assay results as given in patent US6376497B1, “Antifungal azole derivatives having a fluorinated vinyl group and process for preparing same” (Korea Research Institute of Chemical Technology, priority 1999, dated 2002).
In brackets after ≈: the same amount, converted by molar mass.

What was measured:
Assay in all cases: In vitro antifungal activity, microbroth dilution MIC
Format in all cases: cell-based
[1] = tested on: Cryptococcus neoformans A. 34144; details: 4 to 48 hours; for Minimal inhibitory concentration (MIC): Cry. neoformans A. 34144, RPMI-1640, 35° C.
In short: (§1)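 Broth microdilution adapted from NCCLS M27, in RPMI-1640 with 0.165 M MOPS, pH 7.0. Yeast or mould inoculum at 2×10^3 CFU/ml was mixed 1:1 with DMSO-derived compound solutions (200 to 0.10 μg/ml before mixing) and incubated at 35 °C for 4 to 48 h. MIC was the concentration showing no growth.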

[2] = tested on: Aspergillus furnigatus B. 19119; details: 4 to 48 hours; for Minimal inhibitory concentration (MIC): A furnigatus B. 19119, RPMI-1640, 35° C.
In short: as §1

[3] = tested on: Torulopsis glabrata B. 16205; details: 4 to 48 hours; for Minimal inhibitory concentration (MIC): T. glabrata B. 16205, RPMI-1640, 35° C.
In short: as §1

[4] = tested on: Trichophyton mentagrophytes A. 9129; details: 4 to 48 hours; for Minimal inhibitory concentration (MIC): T. mentagrophytes A. 9129, RPMI-1640, 35° C.
In short: as §1

[5] = tested on: Cryptococcus neoformans IFM. 40092; details: 4 to 48 hours; for Minimal inhibitory concentration (MIC): Cry. neoformans IFM. 40092, RPMI-1640, 35° C.
In short: as §1

[6] = tested on: Candida tropicalis A. 13803; details: 4 to 48 hours; for Minimal inhibitory concentration (MIC): C. tropicalis A. 13803, RPMI-1640, 35° C.
In short: as §1

[7] = tested on: Candida pseudotropicalis K. 11658; details: 4 to 48 hours; for Minimal inhibitory concentration (MIC): C. pseudotropicalis K. 11658, RPMI-1640, 35° C.
In short: as §1

[8] = tested on: Cryptococcus neoformans B. 42419; details: 4 to 48 hours; for Minimal inhibitory concentration (MIC): Cry. neoformans B. 42419, RPMI-1640, 35° C.
In short: as §1

Candida albicans C1-2 = details: 4 to 48 hours; for Minimal inhibitory concentration (MIC): C. albicans C1-2, RPMI-1640, 35° C.
In short: as §1

[9] = tested on: Candida albicans IFO. 1385; details: 4 to 48 hours; for Minimal inhibitory concentration (MIC): C. albicans IFO. 1385, RPMI-1640, 35° C.
In short: as §1

[10] = tested on: Candida albicans A. 10231; details: 4 to 48 hours; for Minimal inhibitory concentration (MIC): C. albicans A. 10231, RPMI-1640, 35° C.
In short: as §1

[11] = tested on: Trichophyton mentagrophytes B. 32663; details: 4 to 48 hours; for Minimal inhibitory concentration (MIC): T. mentagrophytes B. 32663, RPMI-1640, 35° C.
In short: as §1

[12] = tested on: Aspergillus niger A. 16404; details: 4 to 48 hours; for Minimal inhibitory concentration (MIC): A. niger A. 16404, RPMI-1640, 35° C.
In short: as §1

[13] = tested on: Candida parapsitosis A. 7330; details: 4 to 48 hours; for Minimal inhibitory concentration (MIC): C. parapsitosis A. 7330, RPMI-1640, 35° C.
In short: as §1

Candida krusei K. 11655 = details: 4 to 48 hours; for Minimal inhibitory concentration (MIC): C. krusei K. 11655, RPMI-1640, 35° C.
In short: as §1

[14] = RPMI-1640, 35° C., no growth observed

| Minimal inhibitory concentration (MIC) [1] [mg/L] | Minimal inhibitory concentration (MIC) [2] [mg/L] | Minimal inhibitory concentration (MIC) [3] [mg/L] | Minimal inhibitory concentration (MIC) [4] [mg/L] | Minimal inhibitory concentration (MIC) [5] [mg/L] | Minimal inhibitory concentration (MIC) [6] [mg/L] | Minimal inhibitory concentration (MIC) [7] [mg/L] | Minimal inhibitory concentration (MIC) [8] [mg/L] | Minimal inhibitory concentration (MIC) (Candida albicans C1-2) [mg/L] | Minimal inhibitory concentration (MIC) [9] [mg/L] | Minimal inhibitory concentration (MIC) [10] [mg/L] | Minimal inhibitory concentration (MIC) [11] [mg/L] | Minimal inhibitory concentration (MIC) [12] [mg/L] | Minimal inhibitory concentration (MIC) [13] [mg/L] | Minimal inhibitory concentration (MIC) (Candida krusei K. 11655) [mg/L] | Compound | also measured |
| --- | --- | --- | --- | --- | --- | --- | --- | --- | --- | --- | --- | --- | --- | --- | --- | --- |
| 1.56 | 3.13 | 6.25 | 6.25 | 0.20 | 100 | 25.0 | 1.56 | 12.5 | 0.78 | 12.5 | 1.56 | 100 | 100 | 50.0 | FC(OCC1COC(Cn2ccnc2)(c2ccc(F)cc2F)O1)=C(c1cccc(Cl)c1)C(F)(F)F (mixture of isomers) [Ex. 64] |  |
| 1.56 | 50.0 | 6.25 | 6.25 | 0.20 | 100 | >100 | 0.78 | 12.5 | 0.78 | 12.5 | 3.13 | >100 | >100 | >100 | Cc1cc(C)cc(C(=C(F)OCC2COC(Cn3ccnc3)(c3ccc(F)cc3F)O2)C(F)(F)F)c1 (mixture of isomers) [Ex. 57] |  |
| 1.56 (≈ 2.83 µM) | 6.25 (≈ 11.3 µM) | 6.25 (≈ 11.3 µM) | 3.13 (≈ 5.67 µM) | 0.78 (≈ 1.41 µM) | 12.5 (≈ 22.7 µM) | 12.5 (≈ 22.7 µM) | 1.56 (≈ 2.83 µM) | 12.5 (≈ 22.7 µM) | 0.78 (≈ 1.41 µM) | 12.5 (≈ 22.7 µM) | 1.56 (≈ 2.83 µM) | 6.25 (≈ 11.3 µM) | 25.0 (≈ 45.3 µM) | 25.0 (≈ 45.3 µM) | FC(OCC1COC(Cn2ccnc2)(c2ccc(Cl)cc2Cl)O1)=C(c1ccc(Cl)cc1)C(F)(F)F (stereo not drawn) [Ex. 31] |  |
|  |  |  |  |  |  |  |  |  |  |  |  |  |  |  | FC(Oc1ccc(OCC2COC(Cn3ccnc3)(c3ccc(F)cc3F)O2)cc1)=C(c1ccccc1)C(F)(F)F (mixture of isomers) [Ex. 106] | Minimal inhibitory concentration(MIC), Cry. neoformans A. 34144 [1, 14]: 1.56 mg/L; Minimal inhibitory concentration(MIC), A furnigatus B. 19119 [2, 14]: >100 mg/L; Minimal inhibitory concentration(MIC), T. glabrata B. 16205 [3, 14]: 50.0 mg/L; Minimal inhibitory concentration(MIC), T. mentagrophytes A. 9129 [4, 14]: 3.13 mg/L; Minimal inhibitory concentration(MIC), Cry. neoformans IFM. 40092 [5, 14]: 0.39 mg/L; Minimal inhibitory concentration(MIC), C. tropicalis A. 13803 [6, 14]: >100 mg/L; Minimal inhibitory concentration(MIC), C. pseudotropicalis K. 11658 [7, 14]: 3.13 mg/L; Minimal inhibitory concentration(MIC), Cry. neoformans B. 42419 [8, 14]: 1.56 mg/L; Minimal inhibitory concentration(MIC), C. albicans C1-2 (Candida albicans C1-2; [14]): 50.0 mg/L; Minimal inhibitory concentration(MIC), C. albicans IFO. 1385 [9, 14]: 1.56 mg/L; Minimal inhibitory concentration(MIC), C. albicans A. 10231 [10, 14]: 100 mg/L; Minimal inhibitory concentration(MIC), T. mentagrophytes B. 32663 [11, 14]: 1.56 mg/L; Minimal inhibitory concentration(MIC), A. niger A. 16404 [12, 14]: >100 mg/L; Minimal inhibitory concentration(MIC), C. parapsitosis A. 7330 [13, 14]: 3.13 mg/L; Minimal inhibitory concentration(MIC), C. krusei K. 11655 (Candida krusei K. 11655; [14]): 3.13 mg/L |
